Test results published in the NIST ThermoML archive (doi:10.1016/j.fluid.2009.06.015).
± gives the expanded uncertainty stated by the source.

Test: excess molar enthalpy (molar enthalpy of mixing); xn = mol fraction of the nth substance listed
Conditions: 101 kPa, Liquid, Flow calorimetry

c1ccccc1 [benzene] + CCCCO
excess molar enthalpy [kcal/mol]
Conditions	298.15 K	313.15 K
x1 = 0.0494	–	0.0354 ± 0.00143
x1 = 0.0504	0.0282 ± 0.00115	–
x1 = 0.0997	0.0566 ± 0.00155	–
x1 = 0.1007	–	0.0726 ± 0.00198
x1 = 0.1497	0.0851 ± 0.00208	0.108 ± 0.00263
x1 = 0.1997	0.113 ± 0.00263	–
x1 = 0.2007	–	0.143 ± 0.00335
x1 = 0.2495	–	0.175 ± 0.00382
x1 = 0.2505	0.141 ± 0.00311	–
x1 = 0.3001	0.167 ± 0.00359	–
x1 = 0.3002	–	0.206 ± 0.00454
x1 = 0.3506	0.191 ± 0.00406	–
x1 = 0.3507	–	0.234 ± 0.00502
x1 = 0.3999	0.212 ± 0.00454	–
x1 = 0.401	–	0.26 ± 0.00574
x1 = 0.4493	–	0.28 ± 0.00598
x1 = 0.4502	0.23 ± 0.00502	–
x1 = 0.4993	–	0.297 ± 0.00645
x1 = 0.5002	0.246 ± 0.00526	–
x1 = 0.5492	–	0.31 ± 0.00669
x1 = 0.5501	0.257 ± 0.0055	–
x1 = 0.5998	0.265 ± 0.00574	–
x1 = 0.601	–	0.317 ± 0.00669
x1 = 0.6505	0.267 ± 0.00574	–
x1 = 0.6506	–	0.32 ± 0.00693
x1 = 0.7	0.264 ± 0.00574	–
x1 = 0.7001	–	0.316 ± 0.00669
x1 = 0.7495	–	0.306 ± 0.00669
x1 = 0.7503	0.256 ± 0.0055	–
x1 = 0.7996	0.242 ± 0.00526	–
x1 = 0.8007	–	0.287 ± 0.00621
x1 = 0.8497	0.22 ± 0.00478	–
x1 = 0.8498	–	0.259 ± 0.00574
x1 = 0.8996	0.185 ± 0.0043	–
x1 = 0.9007	–	0.215 ± 0.00502
x1 = 0.9495	–	0.145 ± 0.00382
x1 = 0.9504	0.129 ± 0.00335	–
